“Also recorded” adds a separate entry of the source. Where two headings read alike, the source gives them in different places.
Experiments:
Assay type in all cases: physicochemical
[1] = Solubility of CHP hydrate (Pattern 2) in EtOH/water/MtBE; conditions: organic solvent or mixture
[2] = Variable temperature dynamic vapour sorption (VT-DVS) at 40, 50, 60 °C; conditions: for Post-VT-DVS XRPD form: after cycles at 40, 50 and 60 °C
Description: Approximately, 10-20 mg of sample was placed into a mesh vapor sorption balance pan and loaded into a DVS Advantage dynamic vapor sorption balance by Surface Measurement Systems. The sample was subjected to a ramping profile from 40-90% relative humidity (RH) at 10% increments, maintaining the sample at each step until a stable weight had been achieved (dm/dt 0.004%, minimum step length 30 minutes, maximum step length 500 minutes) at 40° C. After completion of the sorption cycle, the sample was dried using the same procedure to 0% RH and then a second sorption cycle back to 40% RH. The weight change during the sorption/desorption cycles were plotted, allowing for the hygroscopic nature of the sample to be determined. The experiment was repeated at 50° C. and finally at 60° C. XRPD analysis was then carried out on any solid retained.

[3] = pH solubility assessment in buffers at 37 °C; conditions: for μL for Dissolution at 37° C.: 100 mg solid
Description: CHP patterns 1 and 2 were prepared for pH solubility assessment as follows: • 100 mg of CHP pattern 1 and pattern 2 were each weighed out into 4, 5 mL screw top glass vials; • 100 μL of a selected buffer, pre-heated to 37° C., was added to each vial; • Samples were heated to 37° C. in an incubator shaker for ca. 10 minutes after each volume of buffer and checked for sample dissolution.

[4] = Dry stability at 35, 40, 50 and 65 °C (XRPD)
Description: Drying stability was carried out at 35° C., 40° C., 50° C., and 65° C. respectively.

[5] = Drug substance stability study, 25±2 °C/60±5% RH (appearance, assay, impurities, chiral, water content, XRPD); conditions: 25° C./60% RH (table title)
Description: Packaging: Sample at each individual time point was packaged into double Antistatic LDPE bags both secured with cable ties. The sample packed for the same storage condition were stored together within a fiber drum, and closed with metal lid. All packages were prepared in the same fashion and labeled.
Time zero will be the day samples are placed on station. Initial testing results were from the release testing as long as samples are put on station within 30 days of the release test date, otherwise, initial was repeated.
Study Requirements: Total 22.5 g sample (Total 21 g sample if initial test is not needed): • 1.5 g for initial test if needed; • 21 g sample will be divided into 14 parts, 1.5 g for each parts, sample for each part should be weighed into double Antistatic LDPE bags both secured with cable ties. The stability samples for each storage condition are stored together within a fiber drum, closed with metal lid, and then stored at 25±2° C./60+5% RH (9 bags) and 40±2° C./75±5% RH (5 bags), respectively. Sampling Time:
Samples stored not more than 6 months were pulled on schedule date or within 2 business days after the scheduled date. Samples stored more than 6 months were pulled within +2 business days of the scheduled date.
Stability samples stored for one month to one year, and greater than one year were analyzed and completed within 10 and 20 business days after the samples pulled out from stability chamber, respectively. If time zero testing was performed, it was analyzed within 10 business days after study initiation.

[6] = 8-week stability assessment at 40 °C/75% RH (XRPD, appearance, chiral HPLC); conditions: for Chiral Purity: chiral HPLC
Description: XRPD analysis was carried out on a PANalytical X'pert pro, scanning the samples between 3 and 35° 2θ. The material was gently ground to release any agglomerates and loaded onto a multi-well plate with Kapton or Mylar polymer film to support the sample. The multi-well plate was then placed into the diffractometer and analyzed using Cu K radiation (α1λ=1.54060 Å; α2=1.54443 Å; β=1.39225 Å; α1: α2 ratio=0.5) running in transmission mode (step size 0.0130° 2θ) using 40 kV/40 mA generator settings.
13. Chiral HPLC Column: Daicel IC (5.0 um, 250*4.6 mm) Column Temperature: 30° C. Injection Volume: 5 μL Flow Rate: 1.0 mL/min Mobile Phase A: 0.01% DEA in n-Hexane Mobile Phase B: EtOH:MeOH=2:8 (v/v) Diluent: Acetonitrile PDA Range: 220 nm Gradient program: […]

## O=C1N[C@@H](Cc2cnc[nH]2)C(=O)N2CCC[C@@H]12 [Pattern 2, Pyrrolo [1,2-a]pyrazine-1,4-dione, hexahydro-3-(1H-imidazol-5-ylmethyl)-, hydrate (1:1), (3S, 8aS)-]
[1]; (EtOH/water = 9/1)/MtBE 3/0 (v/v), 5 °C
  solubility: 121 mg/mL
[1]; (EtOH/water = 9/1)/MtBE 3/0 (v/v), 50 °C
  solubility: > 200 mg/mL
[1]; (EtOH/water = 9/1)/MtBE 3/1 (v/v), 5 °C
  solubility: 59 mg/mL
[1]; (EtOH/water = 9/1)/MtBE 3/1 (v/v), 50 °C
  solubility: > 200 mg/mL
[1]; (EtOH/water = 9/1)/MtBE 3/3 (v/v), 5 °C
  solubility: 30 mg/mL
[1]; (EtOH/water = 9/1)/MtBE 3/3 (v/v), 50 °C
  solubility: 101 mg/mL
[1]; (EtOH/water = 9/1)/MtBE 3/6 (v/v), 5 °C
  solubility: 6 mg/mL
[1]; (EtOH/water = 9/1)/MtBE 3/6 (v/v), 50 °C
  solubility: 24 mg/mL
[1]; (EtOH/water = 9/1)/MtBE 3/9 (v/v), 5 °C
  solubility: 6 mg/mL
[1]; (EtOH/water = 9/1)/MtBE 3/9 (v/v), 50 °C
  solubility: 17 mg/mL
[2]; 40 °C, from 10 to 0% RH
  VT-DVS water loss in equivalents: 0.8 equiv water
  VT-DVS weight loss: approx. 5.8 wt %
[2]; 40 °C, from 10 to 0% RH, listed as CHP Hydrate, Pattern 2
  VT-DVS weight loss: 5.8 wt %
[2]; 40 °C, from 10 to 0% RH, listed as CHP pattern 2
  VT-DVS weight loss: approximately 5.8 wt %
[2]; 50 °C, from 20 to 0% RH
  VT-DVS water loss in equivalents: 0.8 equiv water
  VT-DVS weight loss: approximately 6.1 wt %
[2]; 50 °C, from 20 to 0% RH, listed as CHP Hydrate, Pattern 2
  VT-DVS weight loss: 6.1 wt %
[2]; 50 °C, from 20 to 0% RH, listed as CHP pattern 2
  VT-DVS weight loss: approx. 6.1 wt %
[2]; 60 °C, from 20 to 0% RH
  VT-DVS water loss in equivalents: 1.0 equiv water
  VT-DVS weight loss: approximately 7 wt %
[2]; 60 °C, from 20 to 0% RH, listed as CHP Hydrate, Pattern 2
  VT-DVS weight loss: 7 wt %
[2]; 60 °C, from 20 to 0% RH, listed as CHP pattern 2
  VT-DVS weight loss: approx. 7 wt %
[2]; VT-DVS at 40 °C
  RH below which dehydration starts: below 10 % RH
[2]; VT-DVS at 50 °C
  RH below which dehydration starts: below 20 % RH
[2]; VT-DVS at 60 °C
  RH below which dehydration starts: below 20 % RH
[2]
  Post-VT-DVS XRPD form: mixture of Patterns 1 and 2
[2]; listed as CHP pattern 2
  Post-VT-DVS XRPD form: mixture of pattern 1 and pattern 2; also recorded: mixture of pattern 1 and 2
[3]; buffer pH 1
  μL for Dissolution at 37° C.: 300 µL
[3]; buffer pH 4
  μL for Dissolution at 37° C.: 300 µL
[3]; buffer pH 6.8
  μL for Dissolution at 37° C.: 300 µL
[3]; buffer pH 7.2
  μL for Dissolution at 37° C.: 300 µL
[3]; aqueous buffer, thermodynamic from solid, buffer pH 7.2, 37 °C, read-out: Approximate Solubility
  solubility at 10 min: 333 to 500 mg/mL
[3]; buffer pH 1, 37 °C, pH 1, thermodynamic from solid, read-out: Approximate Solubility
  solubility at 10 min: 333 to 500 mg/mL
[3]; buffer pH 4, 37 °C, pH 4, aqueous buffer, thermodynamic from solid, read-out: Approximate Solubility
  solubility at 10 min: 333 to 500 mg/mL
[3]; buffer pH 6.8, 37 °C, pH 6.8, aqueous buffer, thermodynamic from solid, read-out: Approximate Solubility
  solubility at 10 min: 333 to 500 mg/mL
[3]; buffer, aqueous buffer, thermodynamic from solid, all pH values tested (pH 1, 4, 6.8 and 7.2), 37 °C, read-out: Solubility (estimated)
  solubility at 10 min: 333 to 500 mg/mL
[4]; drying at 35-65 °C, up to 4 days
  Drying stability (form): stable up to 40 °C for at least 4 days
[4]; drying at 35 °C, 1 d
  XRPD: Pattern 2
[4]; drying at 35 °C, 4 d
  XRPD: Pattern 2
[4]; drying at 40 °C, 1 d
  XRPD: Pattern 2
[4]; drying at 40 °C, 2 d
  XRPD: Pattern 2
[4]; drying at 40 °C, 3 d
  XRPD: Pattern 2
[4]; drying at 40 °C, 4 d
  XRPD: Pattern 2
[4]; drying at 50 °C, 1 d
  XRPD: Pattern 2
[4]; drying at 50 °C, 2 d
  XRPD: Pattern 2
[4]; drying at 50 °C, 4 d
  XRPD: Pattern 1
[4]; drying at 65 °C, 1 d
  XRPD: Pattern 2
[4]; drying at 65 °C, 2 d
  XRPD: Pattern 1
[4]; lab oven under −0.09 MPa
  Drying stability (form): stable at below 40 °C
[5]; 3M
  Appearance: Off-white powder
  Assay by HPLC: 103.3%
  Chiral, HPLC: chiral purity: 100.0%
  Impurities, HPLC: H-His-OH: 0.08%
  Impurities, HPLC: each other individual (unspecified) impurity: individual <0.05%
  Water content (KF): 7.1%
[5]; 6M
  Appearance: Off-white powder
  Assay by HPLC: 103.4%
  Chiral, HPLC: chiral purity: 100.0%
  Impurities, HPLC: H-His-OH: 0.08%
  Impurities, HPLC: each other individual (unspecified) impurity: individual <0.05%
  Water content (KF): 7.2%
[5]; Initial
  Appearance: Off-white powder
  Assay by HPLC: 103.4%
  Chiral, HPLC: chiral purity: 100.0%
  Impurities, HPLC: H-His-OH: 0.07%
  Impurities, HPLC: each other individual (unspecified) impurity: individual <0.05%
  Water content (KF): 7.4%
[5]; Initial, vs reference standard of Pattern 2 (PS03027-15-H)
  XRPD: Conform to reference
[6]; 2-week
  Appearance: White
  Chiral Purity: >99.9%
[6]; 4-week
  Appearance: White
  Chiral Purity: 99.9%
[6]; 4 weeks, listed as CHP pattern 2
  XRPD form after storage: no change in form
[6]; 8-week
  Appearance: White
[6]; 8 weeks
  XRPD form after storage: no change in form
[6]; 8 weeks, listed as CHP pattern 2
  XRPD form after storage: no change in form
[6]; 8 weeks, listed as pattern 2 CHP
  XRPD form after storage: pattern 2 prevailed
[6]; Initial
  Appearance: White
  Chiral Purity: 99.9%
[6]; two weeks (14 days), listed as CHP pattern 2
  XRPD form after storage: no change in form
